One block for each compound: values may come before it.
Assay: Stability test: crystals stored at 60° C. for three months, amount of decomposition products
Assay type: physicochemical
Experimental: Suplatast tosilate crystals of the present invention produced in Examples 3 and 4 (Lots A and B) and first-form suplatast tosilate crystals produced through the method described in Japanese Patent Publication (kokoku) No. 1991-70698 (Lots C, D, and E) (1.0 g for each Lot) were stored at 60° C. for three months for stability measurement. For reference, second-form suplatast tosilate crystals produced through the method described in JP-A-1995-252213 (Lot F) and third-form suplatast tosilate crystals produced through the method described in WO 02/083633 (Lot G) were subjected to stability measurement in a manner similar to that described above.
As is clear from Table 1, all the first-form crystals produced through the conventionally known production method undergo decomposition, but the crystals produced through the production method of the present invention undergo virtually no decomposition and are stable.

- Amount (%) of suplatast tosilate decomposition products produced at 60° C.: Decomposition product 2 (1 month): 0.0%
- Amount (%) of suplatast tosilate decomposition products produced at 60° C.: Decomposition product 3 (1 month): 0.0%
- Amount (%) of suplatast tosilate decomposition products produced at 60° C.: Decomposition product 1 (1 month, p-toluenesulfonate): 0.0%
- Amount (%) of suplatast tosilate decomposition products produced at 60° C.: Total amount of decomposition products (1 month, p-toluenesulfonate): 0.0%
- Amount (%) of suplatast tosilate decomposition products produced at 60° C.: Decomposition product 1 (2 months, p-toluenesulfonate): 0.0%
- Amount (%) of suplatast tosilate decomposition products produced at 60° C.: Decomposition product 2 (2 months, p-toluenesulfonate): 0.0%
- Amount (%) of suplatast tosilate decomposition products produced at 60° C.: Decomposition product 3 (2 months, p-toluenesulfonate): 0.0%
- Amount (%) of suplatast tosilate decomposition products produced at 60° C.: Total amount of decomposition products (2 months, p-toluenesulfonate): 0.0%
- Amount (%) of suplatast tosilate decomposition products produced at 60° C.: Decomposition product 1 (3 months, p-toluenesulfonate): 0.0%
- Amount (%) of suplatast tosilate decomposition products produced at 60° C.: Decomposition product 2 (3 months, p-toluenesulfonate): 0.0%
- Amount (%) of suplatast tosilate decomposition products produced at 60° C.: Decomposition product 3 (3 months, p-toluenesulfonate): 0.0%
- Amount (%) of suplatast tosilate decomposition products produced at 60° C.: Total amount of decomposition products (3 months, p-toluenesulfonate): 0.0%
Structure (SMILES): CCOCC(O)COc1ccc(NC(=O)CC[S+](C)C)cc1.Cc1ccc(S(=O)(=O)[O-])cc1 (racemic) [Invention crystals (Ex. 3), (±)-[2-[4-(3-ethoxy-2-hydroxypropoxy)phenylcarbamoyl]ethyl]dimethylsulfonium p-toluenesulfonate]

- Amount (%) of suplatast tosilate decomposition products produced at 60° C.: Decomposition product 2 (1 month): 0.0%
- Amount (%) of suplatast tosilate decomposition products produced at 60° C.: Decomposition product 3 (1 month): 0.0%
- Amount (%) of suplatast tosilate decomposition products produced at 60° C.: Decomposition product 1 (1 month, p-toluenesulfonate): 0.0%
- Amount (%) of suplatast tosilate decomposition products produced at 60° C.: Total amount of decomposition products (1 month, p-toluenesulfonate): 0.0%
- Amount (%) of suplatast tosilate decomposition products produced at 60° C.: Decomposition product 1 (2 months, p-toluenesulfonate): 0.0%
- Amount (%) of suplatast tosilate decomposition products produced at 60° C.: Decomposition product 2 (2 months, p-toluenesulfonate): 0.0%
- Amount (%) of suplatast tosilate decomposition products produced at 60° C.: Decomposition product 3 (2 months, p-toluenesulfonate): 0.0%
- Amount (%) of suplatast tosilate decomposition products produced at 60° C.: Total amount of decomposition products (2 months, p-toluenesulfonate): 0.0%
- Amount (%) of suplatast tosilate decomposition products produced at 60° C.: Decomposition product 1 (3 months, p-toluenesulfonate): 0.1%
- Amount (%) of suplatast tosilate decomposition products produced at 60° C.: Decomposition product 2 (3 months, p-toluenesulfonate): 0.1%
- Amount (%) of suplatast tosilate decomposition products produced at 60° C.: Decomposition product 3 (3 months, p-toluenesulfonate): 0.0%
- Amount (%) of suplatast tosilate decomposition products produced at 60° C.: Total amount of decomposition products (3 months, p-toluenesulfonate): 0.2%
Structure (SMILES): CCOCC(O)COc1ccc(NC(=O)CC[S+](C)C)cc1.Cc1ccc(S(=O)(=O)[O-])cc1 (racemic) [Second-form crystals (ref.), (±)-[2-[4-(3-ethoxy-2-hydroxypropoxy)phenylcarbamoyl]ethyl]dimethylsulfonium p-toluenesulfonate]

- Amount (%) of suplatast tosilate decomposition products produced at 60° C.: Decomposition product 2 (1 month): 0.0%
- Amount (%) of suplatast tosilate decomposition products produced at 60° C.: Decomposition product 3 (1 month): 0.0%
- Amount (%) of suplatast tosilate decomposition products produced at 60° C.: Decomposition product 1 (1 month, p-toluenesulfonate): 0.0%
- Amount (%) of suplatast tosilate decomposition products produced at 60° C.: Total amount of decomposition products (1 month, p-toluenesulfonate): 0.0%
- Amount (%) of suplatast tosilate decomposition products produced at 60° C.: Decomposition product 1 (2 months, p-toluenesulfonate): 0.0%
- Amount (%) of suplatast tosilate decomposition products produced at 60° C.: Decomposition product 2 (2 months, p-toluenesulfonate): 0.0%
- Amount (%) of suplatast tosilate decomposition products produced at 60° C.: Decomposition product 3 (2 months, p-toluenesulfonate): 0.0%
- Amount (%) of suplatast tosilate decomposition products produced at 60° C.: Total amount of decomposition products (2 months, p-toluenesulfonate): 0.0%
- Amount (%) of suplatast tosilate decomposition products produced at 60° C.: Decomposition product 1 (3 months, p-toluenesulfonate): 0.0%
- Amount (%) of suplatast tosilate decomposition products produced at 60° C.: Decomposition product 2 (3 months, p-toluenesulfonate): 0.0%
- Amount (%) of suplatast tosilate decomposition products produced at 60° C.: Decomposition product 3 (3 months, p-toluenesulfonate): 0.0%
- Amount (%) of suplatast tosilate decomposition products produced at 60° C.: Total amount of decomposition products (3 months, p-toluenesulfonate): 0.0%
Structure (SMILES): CCOCC(O)COc1ccc(NC(=O)CC[S+](C)C)cc1.Cc1ccc(S(=O)(=O)[O-])cc1 (racemic) [Third-form crystals (ref.), (±)-[2-[4-(3-ethoxy-2-hydroxypropoxy)phenylcarbamoyl]ethyl]dimethylsulfonium p-toluenesulfonate]

The remaining lines, values behind:

Structure (SMILES): CCOCC(O)COc1ccc(NC(=O)CC[S+](C)C)cc1.Cc1ccc(S(=O)(=O)[O-])cc1 (racemic) [First-form crystals Lot C, (±)-[2-[4-(3-ethoxy-2-hydroxypropoxy)phenylcarbamoyl]ethyl]dimethylsulfonium p-toluenesulfonate]
- Amount (%) of suplatast tosilate decomposition products produced at 60° C.: Decomposition product 2 (1 month): 0.0%
- Amount (%) of suplatast tosilate decomposition products produced at 60° C.: Decomposition product 3 (1 month): 0.0%
- Amount (%) of suplatast tosilate decomposition products produced at 60° C.: Decomposition product 1 (1 month, p-toluenesulfonate): 0.1%
- Amount (%) of suplatast tosilate decomposition products produced at 60° C.: Total amount of decomposition products (1 month, p-toluenesulfonate): 0.1%
- Amount (%) of suplatast tosilate decomposition products produced at 60° C.: Decomposition product 1 (2 months, p-toluenesulfonate): 0.6%
- Amount (%) of suplatast tosilate decomposition products produced at 60° C.: Decomposition product 2 (2 months, p-toluenesulfonate): 0.3%
- Amount (%) of suplatast tosilate decomposition products produced at 60° C.: Decomposition product 3 (2 months, p-toluenesulfonate): 0.2%
- Amount (%) of suplatast tosilate decomposition products produced at 60° C.: Total amount of decomposition products (2 months, p-toluenesulfonate): 1.1%
- Amount (%) of suplatast tosilate decomposition products produced at 60° C.: Decomposition product 1 (3 months, p-toluenesulfonate): 1.3%
- Amount (%) of suplatast tosilate decomposition products produced at 60° C.: Decomposition product 2 (3 months, p-toluenesulfonate): 0.4%
- Amount (%) of suplatast tosilate decomposition products produced at 60° C.: Decomposition product 3 (3 months, p-toluenesulfonate): 0.4%
- Amount (%) of suplatast tosilate decomposition products produced at 60° C.: Total amount of decomposition products (3 months, p-toluenesulfonate): 2.1%

Structure (SMILES): CCOCC(O)COc1ccc(NC(=O)CC[S+](C)C)cc1.Cc1ccc(S(=O)(=O)[O-])cc1 (racemic) [First-form crystals Lot D, (±)-[2-[4-(3-ethoxy-2-hydroxypropoxy)phenylcarbamoyl]ethyl]dimethylsulfonium p-toluenesulfonate]
- Amount (%) of suplatast tosilate decomposition products produced at 60° C.: Decomposition product 2 (1 month): 0.0%
- Amount (%) of suplatast tosilate decomposition products produced at 60° C.: Decomposition product 3 (1 month): 0.0%
- Amount (%) of suplatast tosilate decomposition products produced at 60° C.: Decomposition product 1 (1 month, p-toluenesulfonate): 0.0%
- Amount (%) of suplatast tosilate decomposition products produced at 60° C.: Total amount of decomposition products (1 month, p-toluenesulfonate): 0.0%
- Amount (%) of suplatast tosilate decomposition products produced at 60° C.: Decomposition product 1 (2 months, p-toluenesulfonate): 0.4%
- Amount (%) of suplatast tosilate decomposition products produced at 60° C.: Decomposition product 2 (2 months, p-toluenesulfonate): 0.2%
- Amount (%) of suplatast tosilate decomposition products produced at 60° C.: Decomposition product 3 (2 months, p-toluenesulfonate): 0.1%
- Amount (%) of suplatast tosilate decomposition products produced at 60° C.: Total amount of decomposition products (2 months, p-toluenesulfonate): 0.7%
- Amount (%) of suplatast tosilate decomposition products produced at 60° C.: Decomposition product 1 (3 months, p-toluenesulfonate): 0.9%
- Amount (%) of suplatast tosilate decomposition products produced at 60° C.: Decomposition product 2 (3 months, p-toluenesulfonate): 0.3%
- Amount (%) of suplatast tosilate decomposition products produced at 60° C.: Decomposition product 3 (3 months, p-toluenesulfonate): 0.3%
- Amount (%) of suplatast tosilate decomposition products produced at 60° C.: Total amount of decomposition products (3 months, p-toluenesulfonate): 1.5%

Structure (SMILES): CCOCC(O)COc1ccc(NC(=O)CC[S+](C)C)cc1.Cc1ccc(S(=O)(=O)[O-])cc1 (racemic) [First-form crystals Lot E, (±)-[2-[4-(3-ethoxy-2-hydroxypropoxy)phenylcarbamoyl]ethyl]dimethylsulfonium p-toluenesulfonate]
- Amount (%) of suplatast tosilate decomposition products produced at 60° C.: Decomposition product 2 (1 month): 0.0%
- Amount (%) of suplatast tosilate decomposition products produced at 60° C.: Decomposition product 3 (1 month): 0.0%
- Amount (%) of suplatast tosilate decomposition products produced at 60° C.: Decomposition product 1 (1 month, p-toluenesulfonate): 0.0%
- Amount (%) of suplatast tosilate decomposition products produced at 60° C.: Total amount of decomposition products (1 month, p-toluenesulfonate): 0.0%
- Amount (%) of suplatast tosilate decomposition products produced at 60° C.: Decomposition product 1 (2 months, p-toluenesulfonate): 0.3%
- Amount (%) of suplatast tosilate decomposition products produced at 60° C.: Decomposition product 2 (2 months, p-toluenesulfonate): 0.1%
- Amount (%) of suplatast tosilate decomposition products produced at 60° C.: Decomposition product 3 (2 months, p-toluenesulfonate): 0.1%
- Amount (%) of suplatast tosilate decomposition products produced at 60° C.: Total amount of decomposition products (2 months, p-toluenesulfonate): 0.5%
- Amount (%) of suplatast tosilate decomposition products produced at 60° C.: Decomposition product 1 (3 months, p-toluenesulfonate): 0.9%
- Amount (%) of suplatast tosilate decomposition products produced at 60° C.: Decomposition product 2 (3 months, p-toluenesulfonate): 0.2%
- Amount (%) of suplatast tosilate decomposition products produced at 60° C.: Decomposition product 3 (3 months, p-toluenesulfonate): 0.3%
- Amount (%) of suplatast tosilate decomposition products produced at 60° C.: Total amount of decomposition products (3 months, p-toluenesulfonate): 1.4%

Structure (SMILES): CCOCC(O)COc1ccc(NC(=O)CC[S+](C)C)cc1.Cc1ccc(S(=O)(=O)[O-])cc1 (racemic) [Invention crystals (Ex. 4), (±)-[2-[4-(3-ethoxy-2-hydroxypropoxy)phenylcarbamoyl]ethyl]dimethylsulfonium p-toluenesulfonate]
- Amount (%) of suplatast tosilate decomposition products produced at 60° C.: Decomposition product 2 (1 month): 0.0%
- Amount (%) of suplatast tosilate decomposition products produced at 60° C.: Decomposition product 3 (1 month): 0.0%
- Amount (%) of suplatast tosilate decomposition products produced at 60° C.: Decomposition product 1 (1 month, p-toluenesulfonate): 0.0%
- Amount (%) of suplatast tosilate decomposition products produced at 60° C.: Total amount of decomposition products (1 month, p-toluenesulfonate): 0.0%
- Amount (%) of suplatast tosilate decomposition products produced at 60° C.: Decomposition product 1 (2 months, p-toluenesulfonate): 0.0%
- Amount (%) of suplatast tosilate decomposition products produced at 60° C.: Decomposition product 2 (2 months, p-toluenesulfonate): 0.0%
- Amount (%) of suplatast tosilate decomposition products produced at 60° C.: Decomposition product 3 (2 months, p-toluenesulfonate): 0.0%
- Amount (%) of suplatast tosilate decomposition products produced at 60° C.: Total amount of decomposition products (2 months, p-toluenesulfonate): 0.0%
- Amount (%) of suplatast tosilate decomposition products produced at 60° C.: Decomposition product 1 (3 months, p-toluenesulfonate): 0.0%
- Amount (%) of suplatast tosilate decomposition products produced at 60° C.: Decomposition product 2 (3 months, p-toluenesulfonate): 0.0%
- Amount (%) of suplatast tosilate decomposition products produced at 60° C.: Decomposition product 3 (3 months, p-toluenesulfonate): 0.0%
- Amount (%) of suplatast tosilate decomposition products produced at 60° C.: Total amount of decomposition products (3 months, p-toluenesulfonate): 0.0%

— patent US20110213179A1, “METHOD OF EVALUATING EVENNESS OF SUPLATAST TOSILATE CRYSTAL, EVEN CRYSTAL, AND PROCESS FOR PRODUCING THE SAME” (TAIHO PHARMACEUTICAL CO., LTD., priority 2004, published 2011)
